Data: patent US5028590A, “Derivatives of A54145 cyclic peptides” (priority 1988, dated 1991)

Assays:
[1] = tested on: Staphylococcus aureus X1.1; assay: Agar-dilution MIC, Staphylococcus aureus X1.1; format: cell-based
Procedure: (§1) The MIC's in Table IV were determined by conventional agar-dilution assays.

[2] = tested on: Staphylococcus aureus V41; assay: Agar-dilution MIC, Staphylococcus aureus V41; format: cell-based
Procedure: as §1

[3] = tested on: Staphylococcus aureus X400; assay: Agar-dilution MIC, Staphylococcus aureus X400; format: cell-based
Procedure: as §1

[4] = tested on: Staphylococcus aureus S13E; details: agar dilution
Procedure: as §1

[5] = tested on: Staphylococcus epidermidis EPI1; format: cell-based; details: agar dilution
Procedure: as §1

[6] = tested on: Streptococcus pneumoniae Park 1; format: cell-based; details: agar dilution
Procedure: as §1

[7] = tested on: Staphylococcus epidermidis 222; assay: Agar-dilution MIC, Staphylococcus epidermidis 222; format: cell-based
[8] = tested on: Streptococcus pyogenes C203; assay: Agar-dilution MIC, Streptococcus pyogenes C203; format: cell-based
Procedure: as §1

[9] = tested on: Streptococcus sp. group D X66; assay: Agar-dilution MIC, Streptococcus sp. group D X66; format: cell-based
Procedure: as §1

[10] = tested on: Streptococcus sp. group D 2041; assay: Agar-dilution MIC, Streptococcus sp. group D 2041; format: cell-based
Procedure: as §1

Streptococcus pyogenes = assay: In vivo protection of experimentally infected mice (ED50); details: administered subcutaneously, doses given 1 and 4 hours postinfection
Procedure: The formula 1a compounds have shown in vivo antimicrobial activity against experimentally-induced infections in laboratory animals. When two doses of test compound were administered to mice experimentally infected with Streptococcus pyogenes or Staphylococcus aureus, the activity observed was measured as an ED50 value [effective dose in mg/kg to protect 50% of the test animals: see Warren Wick, et al., J. Bacteriol. 81, 233-235 (1961)].

[11] = Relative toxicity, median lethal dose in mice; format: in vivo; details: administered IP in mice
Text: Table VI summarizes the relative toxicity of illustrative formula 1a compounds.
^a When administered IP in mice

Row | Substance | MIC [1] [µg/mL] | MIC [2] [µg/mL] | MIC [3] [µg/mL] | MIC [4] [µg/mL] | MIC [5] [µg/mL] | MIC [6] [µg/mL] | MIC [7] [µg/mL] | MIC [8] [µg/mL] | MIC [9] [µg/mL] | MIC [10] [µg/mL] | ED50 vs. Streptococcus pyogenes (Streptococcus pyogenes) [mg/kg × 2] | Median Lethal Dose [11] [mg/kg]
1 | NTrp -(n-Decanoyl)-A54145F Nucleus [Compound 10] | 16 | 16 | 16 | 16 | 16 | 32 | 16 | 4 | 128 | 128 | 10.8 | > 505
2 | NTrp -(n-Dodecanoyl)-A54145A Nucleus [Compound 4] | 1 | 1 | 1 | 2 | 1 | 2 | 1 | 0.125 | 4 | 8 | 1.15 | 321
3 | NTrp -(n-Nonanoyl)-A54154A Nucleus [Compound 6] | 32 | 32 | 32 | 32 | 16 | 64 | 16 | 4 | 128 | – | 10.6 | > 510
4 | NTrp -(n-Tetradecanoyl)-A54145 Nucleus [Compound 26] | 0.25 | 0.25 | 0.5 | 0.25 | 0.5 | 0.125 | 0.5 | 0.06 | 2 | 4 | – | –
5 | NTrp -(n-Undecanoyl)-A54145A Nucleus [Compound 2] | 2 | 4 | 4 | 4 | 2 | 2 | 2 | 0.5 | 16 | 32 | 1.65 | > 520
